# In BindingDB's records for doi:10.1016/s0960-894x(03)00129-x (Wyeth Research, 2003):
# Molecular target: T1, Progesterone receptor (Rattus norvegicus, UniProt Q63449)
# T1 sequence (Q63449 whole entry): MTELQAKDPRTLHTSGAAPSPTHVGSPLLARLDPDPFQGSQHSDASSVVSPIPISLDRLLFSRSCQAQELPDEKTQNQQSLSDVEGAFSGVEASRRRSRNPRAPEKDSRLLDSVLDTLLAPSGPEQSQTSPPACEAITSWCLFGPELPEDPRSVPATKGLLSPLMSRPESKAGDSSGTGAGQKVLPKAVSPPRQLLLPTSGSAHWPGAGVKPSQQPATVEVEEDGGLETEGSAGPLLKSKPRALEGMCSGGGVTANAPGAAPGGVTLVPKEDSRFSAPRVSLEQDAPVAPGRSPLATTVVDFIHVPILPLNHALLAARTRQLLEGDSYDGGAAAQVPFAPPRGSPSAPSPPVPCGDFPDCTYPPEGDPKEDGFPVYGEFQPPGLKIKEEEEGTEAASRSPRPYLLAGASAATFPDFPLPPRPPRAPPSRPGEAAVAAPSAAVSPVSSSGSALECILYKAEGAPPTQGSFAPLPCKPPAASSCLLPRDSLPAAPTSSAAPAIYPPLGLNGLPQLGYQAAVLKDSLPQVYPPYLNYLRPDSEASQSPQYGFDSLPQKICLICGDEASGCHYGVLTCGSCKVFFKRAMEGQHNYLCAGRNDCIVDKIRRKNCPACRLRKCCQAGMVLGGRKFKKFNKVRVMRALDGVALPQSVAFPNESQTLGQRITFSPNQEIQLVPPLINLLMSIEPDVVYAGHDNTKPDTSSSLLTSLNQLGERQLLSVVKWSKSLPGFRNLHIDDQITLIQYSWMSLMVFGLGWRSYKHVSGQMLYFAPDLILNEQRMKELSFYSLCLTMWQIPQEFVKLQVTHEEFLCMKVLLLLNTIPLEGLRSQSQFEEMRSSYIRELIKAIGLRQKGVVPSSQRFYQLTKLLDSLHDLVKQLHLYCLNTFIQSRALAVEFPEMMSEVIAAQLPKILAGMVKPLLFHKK
# Assay: Inhibitory progestational activity on oral administration in uterine C3 model
row,Compound,IC50 [nM]
1,N#Cc1cccc(-c2ccc3c(c2)C2(CCCCC2)C(=S)N3)c1,942
2,N#Cc1ccc(-c2ccc3c(c2)C2(CCCCC2)C(=S)N3)s1,92.5
3,S=C1Nc2ccc(-c3cccc(Cl)c3)cc2C12CCCCC2,1120
4,"N#Cc1cc(F)cc(-c2ccc3c(c2)C2(CCCCC2)C(S)=N3)c1 [3-fluoro-5-(2'-thioxo-1',2'-dihydrospiro[cyclohexane-1,3'-indol]-5'-yl)benzonitrile]",7.43
5,CC(=O)O[C@]1(C(C)=O)CC[C@H]2[C@@H]3C[C@H](C)C4=CC(=O)CC[C@]4(C)[C@H]3CC[C@@]21C [17-Acetoxy-6alpha-methylprogesterone],67.3
